Laboratory results reported in patent US12252481B2, “Anti-viral compounds” (Aligos Therapeutics, Inc., priority 2021, dated 2025).
Like-named read-outs stand apart in the source and are kept apart here.

Key:
SARS-Cov-2 3CLpro = target: T1, SARS-Cov-2 3CLpro (Severe acute respiratory syndrome coronavirus 2, UniProt P0DTD1); test: biochemical; conditions: read-out: SARS-Cov-2 IC50 (class)
T1 construct: 3CLpro and HRV3C was added using a Multidrop Combi

human cathepsin L = target: T2, human cathepsin L (Homo sapiens, UniProt P07711); test: Cathepsin L assay (Z-FR-AMC fluorescence); type: biochemical; conditions: 10 pM human cathepsin L, 30 mins preincubation, Z-FR-AMC 2 μM
T2 construct: purchased R&D Systems
Procedure, shortened: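 IC50 values were taken from four-parameter fits of fluorescence read at 355/460 nm every 2 minutes for 30 minutes. The reaction started when 2 μM Z-FR-AMC was added. Before that, 10 pM human cathepsin L had been preincubated with inhibitor for 30 minutes.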

HRV3C = target: T3, HRV3C (Human rhinovirus 14, UniProt P03303); test: biochemical; parameters: species or system HRV; conditions: HRV3C, 30 mins preincubation, SAMDI-MS; read-out: HRV IC50 (bound)
T3 construct: 3CLpro and HRV3C was added using a Multidrop Combi

[1] = tested on: A549-dual_ACE2_TMPRSS2 cells; conditions: read-out: A549-dual_ACE2_TMPRSS2 (CC50); assay medium without virus, MTS, numeric values
[2] = tested on: human beta-coronavirus OC43; test: OC43 coronavirus antiviral assay in HeLa cells (cytopathic effect, cell-titer-glo); type: cell-based; conditions: 6 days at 33° C.
HeLa cells = test: Cytotoxicity in HeLa cells without OC43 virus (cell-titer-glo); conditions: HeLa cells without OC43 virus
[3] = tested on: B.1.1.7 lineage SARS-CoV-2; test: microbe, parasite or virus in culture; type: cell-based; conditions: read-out: A549-dual_ACE2_TMPRSS2 (EC50)
[4] = tested on: SARS-CoV-2-GHB-03021/2020; type: cell-based; conditions: read-out: VeroE6 + CP (EC50)
[5] = 3CLpro, 30 mins preincubation, SAMDI-MS
[6] = Severe acute respiratory syndrome coronavirus 2, 96 h
[7] = Betacoronavirus 1, OC43, HeLa, 144 h, read-out: EC50 (class)
[8] = Betacoronavirus 1, OC43, HeLa, 144 h, read-out: EC50 (bound)

T3 sequence (P03303 1538-1719): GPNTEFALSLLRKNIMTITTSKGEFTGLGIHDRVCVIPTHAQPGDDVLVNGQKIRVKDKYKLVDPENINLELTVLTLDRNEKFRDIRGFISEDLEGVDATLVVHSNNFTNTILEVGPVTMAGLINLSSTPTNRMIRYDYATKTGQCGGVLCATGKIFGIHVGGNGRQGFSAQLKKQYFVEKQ
T2 sequence (P07711 114-333): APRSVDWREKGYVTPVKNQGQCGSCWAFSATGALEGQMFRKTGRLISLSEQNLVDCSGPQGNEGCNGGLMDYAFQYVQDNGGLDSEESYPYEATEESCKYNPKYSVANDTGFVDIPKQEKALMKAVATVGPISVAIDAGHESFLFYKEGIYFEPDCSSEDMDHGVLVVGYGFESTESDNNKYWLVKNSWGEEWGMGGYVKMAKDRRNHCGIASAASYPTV

Row | SMILES | IC50 (SARS-Cov-2 3CLpro; [5]) [nM] | IC50 (human cathepsin L) [µM] | IC50 (HRV3C) [µM] | CC50 [1] [µM] | EC50 ([2]; read-out: EC50 (class)) [nM] | CC50 (HeLa cells) [µM] | IC50 (SARS-Cov-2 3CLpro) [nM] | EC50 [3] [nM] | EC50 [3, 6] [nM] | EC50 [4] [nM] | EC50 [2, 7] [nM] | EC50 [2, 8] [nM] | EC50 ([3]; Severe acute respiratory syndrome coronavirus 2, 96 h, […], numeric bounds given instead of class symbols) [nM]
1 | CC(C)(C)[C@H](NC(=O)C(F)(F)F)C(=O)N1C[C@H]2[C@@H]([C@H]1C(=O)N[C@H](C#N)C[C@@H]1CCNC1=O)[C@H]1C=C[C@@H]2CC1 [Compound 59b] | < 20 | ≥ 10 | > 10 | > 10 | < 100 | > 100 | – | – | – | – | – | – | –
2 | CC(C)(C)[C@H](NC(=O)C(F)(F)F)C(=O)N1C[C@@H]2[C@H]3C[C@@H]([C@@H]2[C@H]1C(=O)N[C@H](C#N)C[C@@H]1CCNC1=O)C1(CC1)C3 [Compound 60, (1′S,2′R,5′S,6′S,7′S)—N-[(1S)-1-cyano-2-[(3S)-2-oxopyrrolidin-3-yl]ethyl]-4′-[(2S)-3,3-dimethyl-2-(2,2,2-trifluoroacetamido)butanoyl]-4′-azaspiro[cyclopropane-1,8′-tricyclo[5.2.1.0^{2,6}]decane]-5′-carboxamide] | – | ≥ 10 | > 10 | > 10 | 1000 to 10000 | > 100 | 20 to 200 | 100 to 1000 | – | – | – | – | –
3 | CC(C)(C)[C@H](NC(=O)C(F)(F)F)C(=O)N1C[C@@H]2[C@H]3C[C@@H]([C@@H]2[C@H]1C(=O)N[C@H](C#N)C[C@@H]1CCNC1=O)C(F)(F)C3 [Compound 61, (1S,2R,3S,6R,7S)—N-[(1S)-1-cyano-2-[(3S)-2-oxopyrrolidin-3-yl]ethyl]-4-[(2S)-3,3-dimethyl-2-(2,2,2-trifluoroacetamido)butanoyl]-9,9-difluoro-4-azatricyclo[5.2.1.0^{2,6}]decane-3-carboxamide] | – | ≥ 10 | > 10 | > 10 | 100 to 1000 | > 100 | < 20 | – | – | – | – | – | –
4 | C=C1C[C@@H]2C[C@H]1[C@H]1[C@@H]2CN(C(=O)[C@@H](NC(=O)C(F)(F)F)C(C)(C)C)[C@@H]1C(=O)N[C@H](C#N)C[C@@H]1CCNC1=O [Compound 62, (1S,2S,3S,6R,7S)—N-[(1S)-1-cyano-2-[(3S)-2-oxopyrrolidin-3-yl]ethyl]-4-[(2S)-3,3-dimethyl-2-(2,2,2-trifluoroacetamido)butanoyl]-9-methylidene-4-azatricyclo[5.2.1.0^{2,6}]decane-3-carboxamide] | – | ≥ 10 | > 10 | > 10 | < 100 | > 100 | < 20 | < 100 | – | – | – | – | –
5 | CC(C)(C)[C@H](NC(=O)C(F)(F)F)C(=O)N1C[C@@H]2[C@H]3CC[C@H](CC3)[C@@H]2[C@H]1C(=O)N[C@H](C#N)C[C@@H]1CCNC1=O [Compound 71b] | < 20 | – | > 10 | > 10 | < 100 | > 100 | – | < 100 | – | – | – | – | –
6 | CC(C)(C)[C@H](NC(=O)C(F)(F)F)C(=O)N1C[C@H]2[C@@H]([C@H]1C(=O)N[C@H](C#N)CC1CC3(COC3)NC1=O)[C@H]1C=C[C@@H]2C1 (stereo partly drawn) [Compound 106, (1R,2S,3S,6R,7S)—N-[(1S)-1-cyano-2-{6-oxo-2-oxa-5-azaspiro[3.4]octan-7-yl}ethyl]-4-[(2S)-3,3-dimethyl-2-(2,2,2-trifluoroacetamido)butanoyl]-4-azatricyclo[5.2.1.0^{2,6}]dec-8-ene-3-carboxamide] | – | – | > 0.5 | > 10 | < 100 | > 100 | < 20 | < 100 | – | – | – | – | –
7 | CC(C)(C)[C@H](NC(=O)C1CC12CC2)C(=O)N1C[C@H]2[C@@H]([C@H]1C(=O)N[C@H](C#N)C[C@@H]1CCNC1=O)[C@H]1C=C[C@@H]2C1 (stereo partly drawn) [Example 34, (1R,2S,3S,6R,7S)—N-[(1S)-1-cyano-2-[(3S)-2-oxopyrrolidin-3-yl]ethyl]-4-[(2S)-3,3-dimethyl-2-{spiro[2.2]pentan-1-ylformamido}butanoyl]-4-azatricyclo[5.2.1.0^{2,6}]dec-8-ene-3-carboxamide] | < 20 | ≥ 10 | > 10 | – | – | – | – | – | 100 to 1000 | < 100 | < 100 | – | –
8 | CC(C)(C)[C@H](NC(=O)C1(C2CC2)CC1)C(=O)N1C[C@H]2[C@@H]([C@H]1C(=O)N[C@H](C#N)C[C@@H]1CCNC1=O)[C@H]1C=C[C@@H]2C1 [Example 35, (1R,2S,3S,6R,7S)-4-[(2S)-2-{[1,1′-bi(cyclopropane)]-1-ylformamido}-3,3-dimethylbutanoyl]-N-[(1S)-1-cyano-2-[(3S)-2-oxopyrrolidin-3-yl]ethyl]-4-azatricyclo[5.2.1.0^{2,6}]dec-8-ene-3-carboxamide] | 20 to 200 | ≥ 10 | > 10 | – | – | – | – | – | 1000 to 10000 | 100 to 1000 | 100 to 1000 | – | –
9 | CC(C)(C)[C@H](NC(=O)C1COC1)C(=O)N1C[C@H]2[C@@H]([C@H]1C(=O)N[C@H](C#N)C[C@@H]1CCNC1=O)[C@H]1C=C[C@@H]2C1 [Example 36, (1R,2S,3S,6R,7S)—N-[(1S)-1-cyano-2-[(3S)-2-oxopyrrolidin-3-yl]ethyl]-4-[(2S)-3,3-dimethyl-2-(oxetan-3-ylformamido)butanoyl]-4-azatricyclo[5.2.1.0^{2,6}]dec-8-ene-3-carboxamide] | < 20 | ≥ 10 | > 10 | – | – | – | – | – | 1000 to 10000 | 100 to 1000 | 100 to 1000 | – | –
10 | CC(C)(C)[C@H](NC(=O)C(F)(F)F)C(=O)N1C[C@H]2[C@@H]([C@H]1C(=O)NC(C#N)CC1CCc3cnnn31)[C@H]1C=C[C@@H]2C1 (stereo partly drawn) [Example 37, (1R,2S,3S,6R,7S)—N-(1-cyano-2-{4H,5H,6H-pyrrolo[1,2-c][1,2,3]triazol-6-yl}ethyl)-4-[(2S)-3,3-dimethyl-2-(2,2,2-trifluoroacetamido)butanoyl]-4-azatricyclo[5.2.1.0^{2,6}]dec-8-ene-3-carboxamide] | 20 to 200 | ≥ 10 | > 10 | – | – | – | – | – | 1000 to 10000 | 1000 to 10000 | – | > 10000 | –
11 | CC(C)(C)[C@H](NC(=O)C(F)(F)Cl)C(=O)N1C[C@H]2[C@@H]([C@H]1C(=O)N[C@H](C#N)C[C@@H]1CCNC1=O)[C@H]1C=C[C@@H]2C1 [Example 39, (1R,2S,3S,6R,7S)-4-[(2S)-2-(2-chloro-2,2-difluoroacetamido)-3,3-dimethylbutanoyl]-N-[(1S)-1-cyano-2-[(3S)-2-oxopyrrolidin-3-yl]ethyl]-4-azatricyclo[5.2.1.0^{2,6}]dec-8-ene-3-carboxamide] | < 20 | ≥ 10 | > 10 | – | – | – | – | – | < 100 | < 100 | < 100 | – | –
12 | CC(C)(C)[C@H](NC(=O)C(F)(F)Cl)C(=O)N1C[C@@H]2[C@@H]3CC[C@@H](C3)[C@@H]2[C@H]1C(=O)N[C@H](C#N)C[C@@H]1CCNC1=O [Example 40, (1S,2S,3S,6R,7R)-4-[(2S)-2-(2-chloro-2,2-difluoroacetamido)-3,3-dimethylbutanoyl]-N-[(1S)-1-cyano-2-[(3S)-2-oxopyrrolidin-3-yl]ethyl]-4-azatricyclo[5.2.1.0^{2,6}]decane-3-carboxamide] | < 20 | ≥ 10 | > 10 | – | – | – | – | – | < 100 | < 100 | < 100 | – | –
13 | CC(C)(C)[C@H](NC(=O)C(F)(F)F)C(=O)N1C[C@@H]2[C@H]3C[C@@H]([C@@H]2[C@H]1C(=O)N[C@H](C#N)C[C@@H]1CCNC1=O)[C@H](O)C3 [Example 85, (1S,2R,3S,6R,7S,9R)—N-[(1S)-1-cyano-2-[(3S)-2-oxopyrrolidin-3-yl]ethyl]-4-[(2S)-3,3-dimethyl-2-(2,2,2-trifluoroacetamido)butanoyl]-9-hydroxy-4-azatricyclo[5.2.1.0^{2,6}]decane-3-carboxamide] | 200 to 2000 | ≥ 10 | > 10 | – | – | – | – | – | – | 10000 to 50000 | – | > 10000 | > 10000
14 | CC(C)(C)[C@H](NC(=O)C(F)(F)F)C(=O)N1C[C@@]2(F)[C@@H]([C@H]1C(=O)N[C@H](C#N)C[C@@H]1CCNC1=O)[C@H]1C=C[C@@H]2C1 [Example 94, (1R,2R,3S,6S,7S)—N-[(1S)-1-cyano-2-[(3S)-2-oxopyrrolidin-3-yl]ethyl]-4-[(2S)-3,3-dimethyl-2-(2,2,2-trifluoroacetamido)butanoyl]-6-fluoro-4-azatricyclo[5.2.1.0^{2,6}]dec-8-ene-3-carboxamide] | – | – | > 0.5 | > 1 | < 100 | > 100 | < 20 | < 100 | – | – | – | – | –
